The record followed here is patent publication US20050042354A1, “Antiradicals and fat compositions, foods, drinks, drugs or feeds containing the antiradicals” (priority 2001, published 2005).

The nature of this assay: Trolox relative activity in ORAC method (antiradical activity in serum). To be noted: for Trolox relative activity: ORAC method, human blood serum, 60-μM 4-vinyl-2,6-dimethoxyphenol, 300-μM α-tocopherol. It is filed as biochemical, human. The procedure:
2) Trolox Relative Activity in ORAC Method
10 μl of a test substance in a designated concentration, or
6-hydroxy-2,5,7,8-tetramethylchroman-2-carboxylic acid (Trolox) solution is added to 10 μl of 200-fold diluted solution of human blood serum. Then, 180 μl of 3.73-mg/l β-phycoerythrin (β-PE) is added, and the mixture is preheated at 37° C. for 1 min. 10 μl of 80-mM 2,2′-azobis(2-amidinopropane)-dihydrochloride (AAPH) is then added, and the reaction is started at 37° C. For the dilution of the serum or reagents added, phosphate buffer (75 mM, pH 7.0) is used. As a control, this phosphate buffer is used in place of the test substance. Fluorescence intensity (Ex: 540 nm, Em: 565 nm) of the reactant is measured every 2 min after the start of the reaction, and the relationship between the fluorescence intensity (y-axis) and the time x-axis) is plotted on a graph. The area (S) enclosed by the obtained curve, x and y axes is calculated for the test substance, Trolox and the control. The antiradical activity of the test substance in the serum is calculated as a Trolox relative activity using the following equation. Trolox relative activity=(Test substance's S−Control's S)/(Trolox's S−Control's S)×(Trolox's concentration/Test substance's concentration) In this testing system, AAPH generates peroxyradicals, and the peroxyradicals oxidize the substrate β-PE, which results in a reaction to eliminate fluorescence of β-PE. Trolox is a derivative of water-soluble vitamin E, and is used as a standard substance of the antioxidation reaction in this testing system. These reaction substrate and standard substance are those used in an oxygen radical absorbance capacity (ORAC) method. The ORAC method is widely used to obtain antioxydation and antiradical activities of biological samples and natural materials as values relative to those of a standard substance, in an easy and accurate manner. (5) Rancimat Test

`Cc1c(C)c2c(c(C)c1O)CC[C@@](C)(CCC[C@H](C)CCC[C@H](C)CCCC(C)C)O2` [compound 1, α-tocopherol, reference compound] yielded a Trolox relative activity of 0.08.

In turn, `C=Cc1cc(OC)c(O)c(OC)c1` [Example 7, 4-vinyl-2,6-dimethoxyphenol] yielded a Trolox relative activity of 0.58. Besides, where the note is “in serum”, the “Trolox relative activity in serum relative to α-tocopherol” value is “approximately 7 folds”.
